Data from publication PMC9928118, “Funneling modulatory peptide design with generative models: Discovery and characterization of disruptors of calcineurin protein-protein interactions” (PLOS Computational Biology, 2023).
Each block holds one sequence with its values, some of them ahead of it.

Tested on: GST-tagged Cn
Assay: PEPperPRINT peptide microarray binding assay with GST-tagged Cn
Method in brief: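 Qualitative binding: peptides printed on a PEPperPRINT microarray were incubated overnight at 4 °C with 1 mg/ml GST-tagged Cn, then detected with Alexa-Fluor 647 anti-GST antibody. Log fluorescence was baseline-corrected, averaged over duplicate spots, Z-normalized and averaged across five repeats.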

[1] = max over the chip locations listed for the peptide (two spots)
[2] = mean over the chip locations listed for the peptide (two spots)
[3] = GST-tagged Cn, max over the chip spots listed under Location on chip
[4] = GST-tagged Cn, mean over the chip spots listed under Location on chip
[5] = GST-tagged Cn, max over the spots named in Location on chip
[6] = GST-tagged Cn, mean over the spots named in Location on chip
[7] = GST-tagged Cn, max over the chip locations
[8] = GST-tagged Cn, mean over the chip locations
[9] = max over the spots listed under Location on chip
[10] = mean over the spots listed under Location on chip
[11] = GST-tagged Cn, max over the spots on the chip (two locations)
[12] = GST-tagged Cn, mean over the spots on the chip (two locations)

Chip Fluorescence (max) [1]: 3.906
Chip Fluorescence (mean) [2]: 0.5831
Sequence: KERDVNYYIIHPVGSA [Seqshuffled_9799]

Chip Fluorescence (max) [3]: 0.7156
Chip Fluorescence (mean) [4]: -0.9321
Sequence: KFPGAEFLPQTLTPPP [Seqshuffled_9792]

Sequence: KGCAAPAISIDFAPIN [SeqRBM_541]
Chip Fluorescence (max) [1]: 6.269
Chip Fluorescence (mean) [2]: 0.8691

Chip Fluorescence (max) [3]: 0.7747
Chip Fluorescence (mean) [4]: -0.7747
Sequence: KHATSPRINITQTSTL [SeqRBM_2048]

Chip Fluorescence (max) [1]: 11.1628
Chip Fluorescence (mean) [2]: 2.896
Sequence: KHLDVPDIIITPPTPT [SeqC16orf74_Pan_troglodytes]

Chip Fluorescence (max) [3]: 0.9085
Chip Fluorescence (mean) [4]: -0.7336
Sequence: KKDVPPKILIEPPREF [SeqRBM_6642]

Chip Fluorescence (max) [5]: 1.339
Chip Fluorescence (mean) [6]: -0.05324
Sequence: KKMAPPAINIDFAPTN [SeqRBMlowT_341]

Chip Fluorescence (max) [5]: 1.579
Chip Fluorescence (mean) [6]: 0.1538
Sequence: KKMAPPCINIDFAPEN [SeqRBMlowT_2474]

Chip Fluorescence (max) [7]: -0.3563
Chip Fluorescence (mean) [8]: -3.542
Sequence: KKMAPPCINIDFAPTN [SeqRBMlowT_322]

Chip Fluorescence (max) [1]: 3.662
Chip Fluorescence (mean) [2]: 0.8549
Sequence: KKMAPPCINIDPAPEN [SeqRBMlowT_2431]

Chip Fluorescence (max) [5]: 1.659
Chip Fluorescence (mean) [6]: -0.3088
Sequence: KKMAPPCINIDPAPTN [SeqRBMlowT_309]

Chip Fluorescence (max) [7]: 0.2085
Chip Fluorescence (mean) [8]: -1.259
Sequence: KKMAPPCINIDPAPTS [SeqRBMlowT_307]

Chip Fluorescence (max) [3]: 0.441
Chip Fluorescence (mean) [4]: -1.335
Sequence: KKMAPPCISVHPPEED [SeqRBMlowT_5025]

Chip Fluorescence (max) [9]: 2.64
Chip Fluorescence (mean) [10]: 0.293
Sequence: KKMSPPCIDVHPLDSA [SeqRBM_2282]

Chip Fluorescence (max) [11]: 1.08
Chip Fluorescence (mean) [12]: -0.8311
Sequence: KKMSPPCINIDPAPEN [SeqRBMlowT_2410]

Chip Fluorescence (max) [11]: 0.9886
Chip Fluorescence (mean) [12]: -0.8988
Sequence: KKMSPPCINIDPAPTN [SeqRBMlowT_1811]

Chip Fluorescence (max) [7]: 0.1833
Chip Fluorescence (mean) [8]: -1.098
Sequence: KKMSPPCISIDPAPNN [SeqRBMlowT_7656]

Chip Fluorescence (max) [11]: 1.26
Chip Fluorescence (mean) [12]: -0.004401
Sequence: KKMSPPCISVDPPDEL [SeqCACNA1H_Nothobranchius_rachovii]

Chip Fluorescence (max) [1]: 6.125
Chip Fluorescence (mean) [2]: 1.9169
Sequence: KKMSPPCIVVSPPEED [SeqRBMlowT_306]

Chip Fluorescence (max) [11]: 1.232
Chip Fluorescence (mean) [12]: -0.1213
Sequence: KMAKFLINLSAEKSVM [Seqrandom_9965]

Chip Fluorescence (max) [3]: 0.8784
Chip Fluorescence (mean) [4]: -0.3746
Sequence: KPFECPSIQITSISPN [SeqNFATC3_Homo_sapiens]

Chip Fluorescence (max) [7]: -0.4908
Chip Fluorescence (mean) [8]: -3.72
Sequence: KQMAPPAINIDFAPTN [SeqRBMlowT_1821]

Chip Fluorescence (max) [1]: 24.574
Chip Fluorescence (mean) [2]: 3.689
Sequence: KRMEPIAIIITDTEIS [SeqAKAP79_Pan_troglodytes]

Chip Fluorescence (max) [5]: 1.674
Chip Fluorescence (mean) [6]: -0.01942
Sequence: KRYWKPQFKFGTQVSE [SeqRBM_7919]

Chip Fluorescence (max) [5]: 1.362
Chip Fluorescence (mean) [6]: 0.2601
Sequence: KSKAAPSIVIHIPEEA [SeqRBM_8661]

Chip Fluorescence (max) [7]: 0.2205
Chip Fluorescence (mean) [8]: -0.7902
Sequence: KSKLIPKLSFQSPVHH [SeqRBMlowT_3425]

Chip Fluorescence (max) [7]: -0.5565
Chip Fluorescence (mean) [8]: -1.425
Sequence: KSKLIPKLSIQSPVHH [SeqRBMlowT_830]

Chip Fluorescence (max) [11]: 1.129
Chip Fluorescence (mean) [12]: -1.294
Sequence: KSKLIPKLSIQSPVRH [SeqJHY_Macaca_mulatta]

Chip Fluorescence (max) [9]: 2.868
Chip Fluorescence (mean) [10]: 0.2995
Sequence: KSKSIPKISIQSPVHH [SeqRBMlowT_1684]

Chip Fluorescence (max) [11]: 1.0328
Chip Fluorescence (mean) [12]: -0.6623
Sequence: KSRALSKVVINEPLTI [SeqTRESK_Leptosomus_discolor]

Chip Fluorescence (max) [1]: 3.993
Chip Fluorescence (mean) [2]: 1.569
Sequence: KSSSSPSASINVPQSN [SeqRBM_1871]

Chip Fluorescence (max) [3]: 0.7078
Chip Fluorescence (mean) [4]: 0.0887
Sequence: KTGMATDMQFNPIEQH [Seqshuffled_2687]

Chip Fluorescence (max) [5]: 1.835
Chip Fluorescence (mean) [6]: 0.723
Sequence: KVMAVPRISRSPTQVL [SeqRBM_6937]

Chip Fluorescence (max) [11]: 1.275
Chip Fluorescence (mean) [12]: 0.3801
Sequence: KVRTALYFTWNLTERG [Seqshuffled_9698]

Chip Fluorescence (max) [3]: 0.7857
Chip Fluorescence (mean) [4]: -0.5033
Sequence: KVTTLKSVSPAIAAPE [Seqshuffled_1741]

Chip Fluorescence (max) [7]: -0.5301
Chip Fluorescence (mean) [8]: -2.0266
Sequence: LAFALPAFSFAAMKSA [SeqRBM_4599]

Chip Fluorescence (max) [7]: 0.1795
Chip Fluorescence (mean) [8]: -0.588
Sequence: LATQVPTFEITSPNSA [SeqNRG2_Pan_troglodytes]

Chip Fluorescence (max) [11]: 1.2052
Chip Fluorescence (mean) [12]: 0.7765
Sequence: LCVTGRERIAEDWLRP [Seqrandom_9974]

Chip Fluorescence (max) [1]: 4.66
Chip Fluorescence (mean) [2]: 1.641
Sequence: LCWFLDYRVVLPFFAY [Seqshuffled_7970]

Chip Fluorescence (max) [1]: 9.285
Chip Fluorescence (mean) [2]: 1.035
Sequence: LDEAIPEIVISPPETP [SeqRBMlowT_4410]

Chip Fluorescence (max) [11]: 1.299
Chip Fluorescence (mean) [12]: -0.4919
Sequence: LEAAPPDPDRKPPNII [Seqshuffled_9311]

Chip Fluorescence (max) [5]: 1.718
Chip Fluorescence (mean) [6]: -0.1183
Sequence: LGRMSPQSTTQALPST [Seqshuffled_9332]

Chip Fluorescence (max) [11]: 1.254
Chip Fluorescence (mean) [12]: 0.008632
Sequence: LHPTCDPFRCSTHQSH [Seqshuffled_9610]

Chip Fluorescence (max) [11]: 1.269
Chip Fluorescence (mean) [12]: 0.6031
Sequence: LKDEFPDVRLHIISKL [SeqRCN1_Arthroderma_otae]

Chip Fluorescence (max) [11]: 1.029
Chip Fluorescence (mean) [12]: 0.2404
Sequence: LKDEFPEVRLNIISNL [SeqRBMlowT_1004]

Chip Fluorescence (max) [9]: 2.696
Chip Fluorescence (mean) [10]: 0.6595
Sequence: LKDEFPEVRLNIISSL [SeqRBMlowT_1023]

Chip Fluorescence (max) [3]: 0.7069
Chip Fluorescence (mean) [4]: 0.04327
Sequence: LKDEFSDVRLNIISNL [SeqRBMlowT_1878]

Chip Fluorescence (max) [9]: 2.998
Chip Fluorescence (mean) [10]: 0.7654
Sequence: LKDEIPEVRLNIISAL [SeqRBMlowT_1072]

Chip Fluorescence (max) [1]: 3.957
Chip Fluorescence (mean) [2]: 2.453
Sequence: LKDEIPEVRLNIISNL [SeqRBMlowT_1003]

Chip Fluorescence (max) [5]: 1.476
Chip Fluorescence (mean) [6]: 0.5558
Sequence: LKDEIPEVRLNIISSL [SeqRBMlowT_1013]

Chip Fluorescence (max) [11]: 1.167
Chip Fluorescence (mean) [12]: 0.2257
Sequence: LKDESPEVRLNIISKL [SeqRBMlowT_3831]

Chip Fluorescence (max) [9]: 3.106
Chip Fluorescence (mean) [10]: 1.095
Sequence: LKDESPEVRLNIISSL [SeqRBMlowT_1855]

Chip Fluorescence (max) [3]: 0.4089
Chip Fluorescence (mean) [4]: -0.7319
Sequence: LKDEVPEVRLNIISNL [SeqRCN1_Ramazzottius_varieornatus]

Chip Fluorescence (max) [3]: 0.9435
Chip Fluorescence (mean) [4]: -0.1625
Sequence: LKDEVPEVRLNIISSL [SeqRBMlowT_4107]

Chip Fluorescence (max) [9]: 2.925
Chip Fluorescence (mean) [10]: 0.6756
Sequence: LKDQFPKVRLNIIDAP [SeqRBM_543]

Chip Fluorescence (max) [5]: 1.4154
Chip Fluorescence (mean) [6]: 0.777
Sequence: LKKTYLRREMHGCYNH [Seqrandom_9958]

Chip Fluorescence (max) [1]: 4.37
Chip Fluorescence (mean) [2]: 2.238
Sequence: LLDDVPDVVVHPPEED [SeqRBMlowT_144]

Chip Fluorescence (max) [7]: -0.781
Chip Fluorescence (mean) [8]: -1.379
Sequence: LLLKIPSLNINDVEAS [SeqRBM_1919]

Chip Fluorescence (max) [9]: 3.353
Chip Fluorescence (mean) [10]: 0.761
Sequence: LMVSPPEITISPAELH [SeqRBM_5585]

Chip Fluorescence (max) [3]: 0.5862
Chip Fluorescence (mean) [4]: -1.046
Sequence: LNAIQEAQDKTDIRNK [Seqshuffled_9749]

Chip Fluorescence (max) [7]: 0.2778
Chip Fluorescence (mean) [8]: -0.136
Sequence: LNLEIPEVRLNIISAL [SeqRBMlowT_8463]

Chip Fluorescence (max) [11]: 1.157
Chip Fluorescence (mean) [12]: 0.3599
Sequence: LNLKIPEIDSSDMSAH [SeqFLNA_Erinaceus_europaeus]

Chip Fluorescence (max) [7]: 0.09786
Chip Fluorescence (mean) [8]: -0.5761
Sequence: LNLKIPEVRLNIISAL [SeqRBMlowT_1835]

Chip Fluorescence (max) [5]: 1.375
Chip Fluorescence (mean) [6]: 0.2818
Sequence: LNLKIPIVLLNIISAI [SeqRBM_9387]

Chip Fluorescence (max) [5]: 1.846
Chip Fluorescence (mean) [6]: -0.3422
Sequence: LNLKIPTIAKADITAT [SeqRBM_4458]

Chip Fluorescence (max) [9]: 3.363
Chip Fluorescence (mean) [10]: 0.477
Sequence: LNRIEIFVTFNFTRNS [Seqshuffled_5110]

Chip Fluorescence (max) [3]: 0.7337
Chip Fluorescence (mean) [4]: -0.349
Sequence: LSARYPEIVVSVPEHN [SeqRBM_9361]

Chip Fluorescence (max) [7]: 0.09814
Chip Fluorescence (mean) [8]: -0.3526
Sequence: LSDNRPNVRMEAPMVQ [SeqRBM_9917]

Chip Fluorescence (max) [11]: 1.124
Chip Fluorescence (mean) [12]: -0.12
Sequence: LSLKIPEISIQDMTAQ [SeqFLNA_Macaca_mulatta]

Chip Fluorescence (max) [11]: 1.26
Chip Fluorescence (mean) [12]: 0.2646
Sequence: LTDAAPEVVVSKPEHN [SeqRBMlowT_7696]

Chip Fluorescence (max) [1]: 15.2815
Chip Fluorescence (mean) [2]: 4.411
Sequence: LTWTSLRYSVNDDKNT [Seqshuffled_9363]

Chip Fluorescence (max) [3]: 0.7935
Chip Fluorescence (mean) [4]: -0.8344
Sequence: LTWTSNDMKLHLSGVS [Seqshuffled_9827]

Chip Fluorescence (max) [3]: 0.8809
Chip Fluorescence (mean) [4]: -0.1421
Sequence: LVWDNGSYTGRTIKAP [Seqshuffled_9818]

Chip Fluorescence (max) [9]: 2.82
Chip Fluorescence (mean) [10]: 1.158
Sequence: MAGPHPKIVITGPHEE [PKIVIT-containing synthetic peptide]

Chip Fluorescence (max) [5]: 1.659
Chip Fluorescence (mean) [6]: -0.168
Sequence: MLDAIPEVVVSPPEEP [SeqRBM_4087]

Chip Fluorescence (max) [5]: 1.553
Chip Fluorescence (mean) [6]: -0.6579
Sequence: MLSIRPSARLKIPQHR [SeqRBM_1889]
